Assays:
Assay in all cases: biochemical
Type in all cases: binding
panel of 442 kinases [1] = target: T1, panel of 442 kinases (Homo sapiens, UniProt P07948); details: kinase LYN; for remaining activity at 1 µM: read-out: % of control at 1 µM
T1 construct: purchased Ambit Biosciences (scanMAXX KINOMEscan)

panel of 442 kinases [2] = target: T2, panel of 442 kinases (Homo sapiens, UniProt Q96D53); details: ADCK4; for remaining activity at 1 µM: read-out: % of control at 1 µM
T2 construct: purchased Ambit Biosciences (scanMAXX KINOMEscan)
T2 sequence (Q96D53 1-544): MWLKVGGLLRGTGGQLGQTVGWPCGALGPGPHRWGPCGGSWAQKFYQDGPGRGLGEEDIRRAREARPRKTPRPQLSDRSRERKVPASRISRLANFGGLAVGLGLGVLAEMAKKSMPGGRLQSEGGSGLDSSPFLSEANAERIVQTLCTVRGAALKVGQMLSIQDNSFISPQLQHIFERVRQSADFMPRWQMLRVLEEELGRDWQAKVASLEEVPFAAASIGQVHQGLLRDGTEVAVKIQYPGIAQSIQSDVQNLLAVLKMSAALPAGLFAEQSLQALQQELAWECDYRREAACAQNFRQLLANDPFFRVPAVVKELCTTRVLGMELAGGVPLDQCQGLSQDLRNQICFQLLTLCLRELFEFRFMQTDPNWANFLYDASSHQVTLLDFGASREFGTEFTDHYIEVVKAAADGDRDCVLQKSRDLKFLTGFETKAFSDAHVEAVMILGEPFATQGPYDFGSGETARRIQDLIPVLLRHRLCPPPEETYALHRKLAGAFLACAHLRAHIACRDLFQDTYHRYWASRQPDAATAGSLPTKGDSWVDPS

panel of 442 kinases [3] = target: T3, panel of 442 kinases (Homo sapiens, UniProt P17612); details: kinase PKAC-alpha; for remaining activity at 1 µM: read-out: % of control at 1 µM
T3 construct: purchased Ambit Biosciences (scanMAXX KINOMEscan)

panel of 442 kinases [4] = target: T4, panel of 442 kinases (Homo sapiens, UniProt Q13164); details: ERK5; for remaining activity at 1 µM: read-out: % of control at 1 µM
T4 construct: purchased Ambit Biosciences (scanMAXX KINOMEscan)

panel of 442 kinases [5] = target: T5, panel of 442 kinases (Homo sapiens, UniProt Q9HCP0); details: CSNK1G1; for remaining activity at 1 µM: read-out: % of control at 1 µM
T5 construct: purchased Ambit Biosciences (scanMAXX KINOMEscan)

panel of 442 kinases [6] = target: T6, panel of 442 kinases (Homo sapiens, UniProt Q8WTQ7); details: kinase GRK7; for remaining activity at 1 µM: read-out: % of control at 1 µM
T6 construct: purchased Ambit Biosciences (scanMAXX KINOMEscan)
T6 sequence (Q8WTQ7 1-553): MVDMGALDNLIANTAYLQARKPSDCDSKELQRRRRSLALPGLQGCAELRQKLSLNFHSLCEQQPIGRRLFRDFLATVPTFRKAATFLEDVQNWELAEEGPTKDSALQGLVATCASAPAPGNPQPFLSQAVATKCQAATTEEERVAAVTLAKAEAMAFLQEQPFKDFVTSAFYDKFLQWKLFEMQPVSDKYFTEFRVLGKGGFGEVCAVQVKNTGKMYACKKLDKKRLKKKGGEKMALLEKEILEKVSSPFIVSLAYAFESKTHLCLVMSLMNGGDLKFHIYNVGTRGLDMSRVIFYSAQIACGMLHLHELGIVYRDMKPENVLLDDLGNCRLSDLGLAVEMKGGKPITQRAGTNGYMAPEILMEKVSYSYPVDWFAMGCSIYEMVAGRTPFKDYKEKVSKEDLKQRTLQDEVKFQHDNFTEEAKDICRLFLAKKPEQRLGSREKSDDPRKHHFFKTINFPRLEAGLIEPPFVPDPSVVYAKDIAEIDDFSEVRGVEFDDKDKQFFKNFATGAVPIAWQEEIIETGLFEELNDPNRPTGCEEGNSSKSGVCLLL

panel of 442 kinases [7] = target: T7, panel of 442 kinases (Homo sapiens, UniProt P10721); details: kinase KIT; for remaining activity at 1 µM: read-out: % of control at 1 µM
T7 construct: purchased Ambit Biosciences (scanMAXX KINOMEscan)

panel of 442 kinases [8] = target: T8, panel of 442 kinases (Homo sapiens, UniProt O95382); details: ASK2; for remaining activity at 1 µM: read-out: % of control at 1 µM
T8 construct: purchased Ambit Biosciences (scanMAXX KINOMEscan)
T8 sequence (O95382 1-1288): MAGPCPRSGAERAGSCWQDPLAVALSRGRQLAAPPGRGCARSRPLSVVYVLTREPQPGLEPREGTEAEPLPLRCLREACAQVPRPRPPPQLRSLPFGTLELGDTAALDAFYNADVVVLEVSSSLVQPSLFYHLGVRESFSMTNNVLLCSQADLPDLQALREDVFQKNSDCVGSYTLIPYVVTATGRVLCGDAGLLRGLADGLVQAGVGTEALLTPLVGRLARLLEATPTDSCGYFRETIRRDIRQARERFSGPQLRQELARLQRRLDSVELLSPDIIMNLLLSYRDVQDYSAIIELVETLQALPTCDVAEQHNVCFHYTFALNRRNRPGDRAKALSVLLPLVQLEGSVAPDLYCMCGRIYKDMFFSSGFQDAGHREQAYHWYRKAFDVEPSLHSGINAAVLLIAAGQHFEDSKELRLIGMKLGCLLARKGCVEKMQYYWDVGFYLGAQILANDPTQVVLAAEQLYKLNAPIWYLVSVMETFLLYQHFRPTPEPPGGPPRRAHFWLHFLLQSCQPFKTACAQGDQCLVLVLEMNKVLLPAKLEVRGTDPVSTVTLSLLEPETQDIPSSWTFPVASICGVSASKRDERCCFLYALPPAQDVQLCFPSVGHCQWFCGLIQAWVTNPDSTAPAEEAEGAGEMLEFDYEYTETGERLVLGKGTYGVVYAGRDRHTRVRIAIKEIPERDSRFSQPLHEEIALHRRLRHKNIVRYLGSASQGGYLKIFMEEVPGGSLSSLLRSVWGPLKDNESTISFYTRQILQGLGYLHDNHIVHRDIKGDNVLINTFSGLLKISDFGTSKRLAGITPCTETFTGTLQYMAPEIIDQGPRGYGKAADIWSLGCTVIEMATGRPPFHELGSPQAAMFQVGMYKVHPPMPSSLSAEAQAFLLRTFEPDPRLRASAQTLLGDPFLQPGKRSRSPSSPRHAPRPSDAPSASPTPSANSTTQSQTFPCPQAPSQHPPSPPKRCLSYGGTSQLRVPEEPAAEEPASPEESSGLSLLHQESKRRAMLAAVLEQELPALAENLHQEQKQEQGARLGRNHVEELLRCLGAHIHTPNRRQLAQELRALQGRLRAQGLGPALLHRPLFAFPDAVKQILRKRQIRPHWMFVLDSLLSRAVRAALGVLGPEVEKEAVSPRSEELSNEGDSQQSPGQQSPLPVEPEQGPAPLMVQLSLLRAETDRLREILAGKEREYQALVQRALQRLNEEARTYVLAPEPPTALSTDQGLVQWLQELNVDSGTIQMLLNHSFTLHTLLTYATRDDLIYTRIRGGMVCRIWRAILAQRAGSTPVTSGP

[9] = 10 µM, read-out: % of control at 10 µM

T4 sequence (Q13164 whole entry): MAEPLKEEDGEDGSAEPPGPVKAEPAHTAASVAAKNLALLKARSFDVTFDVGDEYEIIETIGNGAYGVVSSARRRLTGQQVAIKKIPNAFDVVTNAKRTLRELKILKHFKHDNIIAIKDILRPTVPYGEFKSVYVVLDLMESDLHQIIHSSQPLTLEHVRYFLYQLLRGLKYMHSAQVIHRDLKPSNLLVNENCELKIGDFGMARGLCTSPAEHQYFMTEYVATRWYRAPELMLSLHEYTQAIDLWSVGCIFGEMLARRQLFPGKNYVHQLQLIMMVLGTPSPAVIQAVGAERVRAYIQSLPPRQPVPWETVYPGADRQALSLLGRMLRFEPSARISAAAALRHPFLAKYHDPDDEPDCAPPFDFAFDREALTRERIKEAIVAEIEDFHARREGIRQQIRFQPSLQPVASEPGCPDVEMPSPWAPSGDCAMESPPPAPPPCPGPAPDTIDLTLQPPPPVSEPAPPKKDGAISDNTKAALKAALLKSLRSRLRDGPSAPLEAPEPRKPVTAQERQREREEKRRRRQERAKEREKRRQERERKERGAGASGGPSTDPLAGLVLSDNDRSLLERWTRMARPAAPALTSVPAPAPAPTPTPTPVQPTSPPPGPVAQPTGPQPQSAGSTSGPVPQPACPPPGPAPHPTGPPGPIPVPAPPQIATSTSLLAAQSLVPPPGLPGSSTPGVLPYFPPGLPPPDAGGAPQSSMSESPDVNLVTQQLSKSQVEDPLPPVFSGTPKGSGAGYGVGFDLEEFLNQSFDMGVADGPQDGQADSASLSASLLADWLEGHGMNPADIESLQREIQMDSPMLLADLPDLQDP
T5 sequence (Q9HCP0 whole entry): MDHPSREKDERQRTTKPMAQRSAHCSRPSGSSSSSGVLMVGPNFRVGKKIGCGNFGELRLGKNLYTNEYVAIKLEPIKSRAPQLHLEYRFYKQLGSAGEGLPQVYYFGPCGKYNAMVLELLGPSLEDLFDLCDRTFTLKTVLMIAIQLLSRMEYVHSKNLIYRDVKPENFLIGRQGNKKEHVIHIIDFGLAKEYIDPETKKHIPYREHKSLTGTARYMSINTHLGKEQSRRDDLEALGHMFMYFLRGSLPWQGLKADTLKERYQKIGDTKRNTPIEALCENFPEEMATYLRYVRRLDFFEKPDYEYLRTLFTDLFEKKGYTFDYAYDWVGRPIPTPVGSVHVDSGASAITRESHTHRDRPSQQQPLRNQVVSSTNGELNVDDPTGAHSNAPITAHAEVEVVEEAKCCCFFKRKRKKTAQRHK
T1 sequence (P07948 whole entry): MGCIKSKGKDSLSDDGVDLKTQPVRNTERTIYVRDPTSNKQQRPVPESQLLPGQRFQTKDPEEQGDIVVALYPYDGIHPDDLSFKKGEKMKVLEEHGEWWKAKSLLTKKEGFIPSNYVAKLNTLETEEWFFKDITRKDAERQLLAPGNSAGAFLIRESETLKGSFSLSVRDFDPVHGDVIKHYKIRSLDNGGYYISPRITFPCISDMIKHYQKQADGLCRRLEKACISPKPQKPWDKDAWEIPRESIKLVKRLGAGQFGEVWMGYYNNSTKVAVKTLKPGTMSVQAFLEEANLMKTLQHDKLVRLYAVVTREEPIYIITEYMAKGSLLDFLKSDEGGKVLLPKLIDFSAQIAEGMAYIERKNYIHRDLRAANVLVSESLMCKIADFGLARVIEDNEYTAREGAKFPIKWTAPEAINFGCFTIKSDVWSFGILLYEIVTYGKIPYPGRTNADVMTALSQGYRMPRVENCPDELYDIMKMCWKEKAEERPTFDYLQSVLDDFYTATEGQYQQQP
T7 sequence (P10721 26-976): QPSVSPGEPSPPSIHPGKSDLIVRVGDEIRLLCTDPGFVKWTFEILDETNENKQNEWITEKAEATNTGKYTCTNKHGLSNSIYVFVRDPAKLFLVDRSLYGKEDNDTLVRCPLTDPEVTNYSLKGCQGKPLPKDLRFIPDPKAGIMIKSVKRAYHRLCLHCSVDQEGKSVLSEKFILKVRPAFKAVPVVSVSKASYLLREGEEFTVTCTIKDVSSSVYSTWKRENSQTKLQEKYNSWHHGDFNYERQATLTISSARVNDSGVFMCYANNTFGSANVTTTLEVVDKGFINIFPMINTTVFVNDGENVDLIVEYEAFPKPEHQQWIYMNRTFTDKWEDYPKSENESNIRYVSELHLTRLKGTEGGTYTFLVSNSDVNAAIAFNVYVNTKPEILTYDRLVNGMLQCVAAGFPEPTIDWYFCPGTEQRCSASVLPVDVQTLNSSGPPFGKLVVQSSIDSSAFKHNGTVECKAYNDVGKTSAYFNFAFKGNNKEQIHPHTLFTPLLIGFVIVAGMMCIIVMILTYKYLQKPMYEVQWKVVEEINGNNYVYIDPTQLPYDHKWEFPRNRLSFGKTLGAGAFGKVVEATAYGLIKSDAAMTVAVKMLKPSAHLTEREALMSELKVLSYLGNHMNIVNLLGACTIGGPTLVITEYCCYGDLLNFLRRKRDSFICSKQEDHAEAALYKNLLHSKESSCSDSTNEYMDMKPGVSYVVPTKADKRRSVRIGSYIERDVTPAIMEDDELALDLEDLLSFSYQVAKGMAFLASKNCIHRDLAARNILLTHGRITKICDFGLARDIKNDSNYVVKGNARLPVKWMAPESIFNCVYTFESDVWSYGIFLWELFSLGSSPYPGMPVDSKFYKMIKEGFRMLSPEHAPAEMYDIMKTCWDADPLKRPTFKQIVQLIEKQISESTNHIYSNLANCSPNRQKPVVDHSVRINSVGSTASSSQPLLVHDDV

Work on Nc1cc(C(F)(F)F)c(-c2cc(N3CCOCC3)nc(N3CCOCC3)n2)cn1 [Buparlisib] yielded a remaining activity at 1 µM (panel of 442 kinases [1]) of 84%, a remaining activity at 10 µM (panel of 442 kinases [1]; [9]) of 100% and a remaining activity at 1 µM (panel of 442 kinases [2]) of 100%. For the same molecule, the remaining activity at 10 µM (panel of 442 kinases [2]; [9]) was 100%, the remaining activity at 1 µM (panel of 442 kinases [3]) was 86% and the remaining activity at 10 µM (panel of 442 kinases [3]; [9]) was 100%. It also gave a remaining activity at 1 µM (panel of 442 kinases [4]) of 84%, a remaining activity at 10 µM (panel of 442 kinases [4]; [9]) of 100% and a remaining activity at 1 µM (panel of 442 kinases [5]) of 95%. For the same molecule, the remaining activity at 10 µM (panel of 442 kinases [5]; [9]) was 95%, the remaining activity at 1 µM (panel of 442 kinases [6]) was 77% and the remaining activity at 10 µM (panel of 442 kinases [6]; [9]) was 100%. It also gave a remaining activity at 1 µM (panel of 442 kinases [7]) of 89%, a remaining activity at 10 µM (panel of 442 kinases [7]; [9]) of 66% and a remaining activity at 1 µM (panel of 442 kinases [8]) of 87%. It also gave a remaining activity at 10 µM (panel of 442 kinases [8]; [9]) of 100%.
For Cn1c(=O)n(-c2ccc(C(C)(C)C#N)cc2)c2c3cc(-c4cnc5ccccc5c4)ccc3ncc21 [Dactolisib, 2-methyl-2-[4-(3-methyl-2-oxo-8-quinolin-3-yl-2,3-dihydroimidazo[4,5-c]quinolin-1-yl)-phenyl] propionitrile], the remaining activity at 1 µM (panel of 442 kinases [1]) was 87%, the remaining activity at 1 µM (panel of 442 kinases [3]) was 100% and the remaining activity at 1 µM (panel of 442 kinases [5]) was 67%. The remaining activity at 1 µM (panel of 442 kinases [6]) was 92%, the remaining activity at 1 µM (panel of 442 kinases [7]) was 63% and the remaining activity at 1 µM (panel of 442 kinases [8]) was 90%.
Work on COc1ncc(-c2ccc3nccc(-c4ccnnc4)c3c2)cc1NS(=O)(=O)c1ccc(F)cc1F [Omipalisib] yielded a remaining activity at 1 µM (panel of 442 kinases [1]) of 100%, a remaining activity at 1 µM (panel of 442 kinases [2]) of 75% and a remaining activity at 1 µM (panel of 442 kinases [3]) of 84%. It also gave a remaining activity at 1 µM (panel of 442 kinases [4]) of 87%, a remaining activity at 1 µM (panel of 442 kinases [5]) of 100% and a remaining activity at 1 µM (panel of 442 kinases [6]) of 100%. The remaining activity at 1 µM (panel of 442 kinases [7]) was 100% and the remaining activity at 1 µM (panel of 442 kinases [8]) was 91%.
Work on FC(F)c1nc2ccccc2n1-c1nc(N2CCOCC2)nc(N2CCOCC2)n1 [ZSTK474, 2-(difluoromethyl)-1-[4,6-di(4-morpholinyl)-1,3,5-triazin-2-yl]-1H-benzimidazole] yielded a remaining activity at 1 µM (panel of 442 kinases [1]) of 100%, a remaining activity at 1 µM (panel of 442 kinases [2]) of 74% and a remaining activity at 1 µM (panel of 442 kinases [3]) of 100%. The remaining activity at 1 µM (panel of 442 kinases [4]) was 97%, the remaining activity at 1 µM (panel of 442 kinases [5]) was 81% and the remaining activity at 1 µM (panel of 442 kinases [6]) was 98%. It also gave a remaining activity at 1 µM (panel of 442 kinases [7]) of 85% and a remaining activity at 1 µM (panel of 442 kinases [8]) of 97%.

Reference: PMC5564600 (Oncotarget, 2017)
